Earlier results as cited in patent US10758505B2, “Therapeutic compositions and methods” (Innovus Pharmaceuticals, Inc., priority 2017, dated 2020).

Assays:
P-glycoprotein = P-glycoprotein (Homo sapiens, UniProt P08183)
human CYP3A4 = human CYP3A4 (Homo sapiens, UniProt P08684)
Chain of human CYP3A4 (P08684 whole entry): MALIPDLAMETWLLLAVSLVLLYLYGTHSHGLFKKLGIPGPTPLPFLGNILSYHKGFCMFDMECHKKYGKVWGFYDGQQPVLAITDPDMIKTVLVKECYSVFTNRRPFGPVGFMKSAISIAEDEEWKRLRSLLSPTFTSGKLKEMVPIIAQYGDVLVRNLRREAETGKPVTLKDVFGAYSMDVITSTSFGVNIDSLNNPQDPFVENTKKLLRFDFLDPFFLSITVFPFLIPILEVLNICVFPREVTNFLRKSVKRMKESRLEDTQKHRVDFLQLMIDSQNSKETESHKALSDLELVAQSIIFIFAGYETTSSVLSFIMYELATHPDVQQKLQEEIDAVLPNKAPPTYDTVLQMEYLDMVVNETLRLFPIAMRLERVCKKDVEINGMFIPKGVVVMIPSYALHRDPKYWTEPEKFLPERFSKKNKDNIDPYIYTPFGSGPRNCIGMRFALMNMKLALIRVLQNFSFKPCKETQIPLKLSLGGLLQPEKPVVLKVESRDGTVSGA

Chain of P-glycoprotein (P08183 whole entry): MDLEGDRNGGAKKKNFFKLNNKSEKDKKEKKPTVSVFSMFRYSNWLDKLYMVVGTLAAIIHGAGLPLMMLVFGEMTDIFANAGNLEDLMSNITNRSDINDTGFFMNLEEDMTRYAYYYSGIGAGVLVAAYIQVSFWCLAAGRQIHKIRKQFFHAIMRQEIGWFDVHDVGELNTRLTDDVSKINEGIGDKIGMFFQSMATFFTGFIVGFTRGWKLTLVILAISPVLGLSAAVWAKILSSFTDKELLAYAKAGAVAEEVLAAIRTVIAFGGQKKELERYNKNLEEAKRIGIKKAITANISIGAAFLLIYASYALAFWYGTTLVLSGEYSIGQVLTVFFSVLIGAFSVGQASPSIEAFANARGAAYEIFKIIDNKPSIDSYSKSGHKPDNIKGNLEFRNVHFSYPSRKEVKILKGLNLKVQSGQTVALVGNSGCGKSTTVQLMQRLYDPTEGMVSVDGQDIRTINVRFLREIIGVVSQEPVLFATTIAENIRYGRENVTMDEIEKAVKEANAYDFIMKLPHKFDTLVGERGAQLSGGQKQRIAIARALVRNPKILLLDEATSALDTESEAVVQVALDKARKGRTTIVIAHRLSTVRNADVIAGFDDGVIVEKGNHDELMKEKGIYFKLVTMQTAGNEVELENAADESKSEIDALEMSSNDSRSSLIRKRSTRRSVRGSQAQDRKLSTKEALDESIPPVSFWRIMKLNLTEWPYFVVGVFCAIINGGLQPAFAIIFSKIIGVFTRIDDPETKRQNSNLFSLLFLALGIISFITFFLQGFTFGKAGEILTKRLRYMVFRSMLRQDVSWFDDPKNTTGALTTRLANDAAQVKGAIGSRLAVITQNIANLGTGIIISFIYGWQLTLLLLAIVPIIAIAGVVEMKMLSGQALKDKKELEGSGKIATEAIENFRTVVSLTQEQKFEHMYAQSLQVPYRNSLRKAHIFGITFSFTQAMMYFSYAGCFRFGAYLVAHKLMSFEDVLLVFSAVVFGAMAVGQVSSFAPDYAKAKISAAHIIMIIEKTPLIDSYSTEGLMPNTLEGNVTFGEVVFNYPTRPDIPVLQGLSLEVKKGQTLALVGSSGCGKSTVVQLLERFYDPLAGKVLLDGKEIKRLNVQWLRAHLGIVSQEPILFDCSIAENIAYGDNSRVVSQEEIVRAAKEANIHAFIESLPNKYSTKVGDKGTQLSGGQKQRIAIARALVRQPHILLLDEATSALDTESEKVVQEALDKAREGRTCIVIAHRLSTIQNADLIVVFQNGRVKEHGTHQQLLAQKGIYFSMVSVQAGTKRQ

In the case of `O=C(/C=C/C=C/c1ccc2c(c1)OCO2)N1CCCCC1` [Bioperine®, (2E,4E)-5-(1,3-benzodioxol-5-yl)-1-(piperidin-1-yl)penta-2,4-dien-1-one], the “inhibition of P-glycoprotein” value (P-glycoprotein) is given as “inhibits” and the “inhibition of human CYP3A4” value (human CYP3A4) is given as “inhibits”.
